Assay results as given in ChEMBL document CHEMBL1201862, “PubChem BioAssay data set” (2004).
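Briefly, cells in 96-well plates were exposed to five compound concentrations for 48 h, and endpoints were estimated by linear interpolation. GI50 = concentration required for 50% inhibition of growth.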 Activity calls are given as the source filed them. No stated cut-off is given here; in the data, active = GI50 up to about 1.1 µM and inactive = higher.

How the values were obtained:
Assay in all cases: NCI tumour cell line growth inhibition, 48 h
MCF7 = system: MCF7
CCRF-CEM = system: CCRF-CEM
OVCAR-5 = system: OVCAR-5
BT-549 = system: BT-549
Malme-3M = system: Malme-3M
SNB-19 = system: SNB-19
SW-620 = system: SW-620
U-251 = system: U-251
NCI-H460 = system: NCI-H460
HOP-92 = system: HOP-92
EKVX = system: EKVX
HCT-116 = system: HCT-116
LOX IMVI = system: LOX IMVI
NCI-H226 = system: NCI-H226
COLO 205 = system: COLO 205
KM12 = system: KM12
RPMI-8226 = system: RPMI-8226
SF-539 = system: SF-539
OVCAR-4 = system: OVCAR-4
SK-MEL-2 = system: SK-MEL-2
PC-3 = system: PC-3
SK-MEL-5 = system: SK-MEL-5
SNB-75 = system: SNB-75
OVCAR-8 = system: OVCAR-8
K562 = system: K562
UACC-62 = system: UACC-62
MDA-MB-435 = system: MDA-MB-435
M14 = system: M14
SF-268 = system: SF-268
UO-31 = system: UO-31
UACC-257 = system: UACC-257
SF-295 = system: SF-295
Hs-578T = system: Hs-578T
HCT-15 = system: HCT-15
HL-60 = system: HL-60
CAKI-1 = system: CAKI-1
SR = system: SR
SK-OV-3 = system: SK-OV-3
786-0 = system: 786-0
MDA-MB-231 = system: MDA-MB-231
OVCAR-3 = system: OVCAR-3
TK-10 = system: TK-10
SN12C = system: SN12C
SK-MEL-28 = system: SK-MEL-28
HOP-62 = system: HOP-62
MOLT-4 = system: MOLT-4
ACHN = system: ACHN
IGROV-1 = system: IGROV-1
A549 = system: A549
NCI-H23 = system: NCI-H23
NCI-H522 = system: NCI-H522
NCI/ADR-RES = system: NCI/ADR-RES
A498 = system: A498
MDA-N = system: MDA-N
HT-29 = system: HT-29
RXF 393 = system: RXF 393
DU-145 = system: DU-145
T47D = system: T47D
HCC 2998 = system: HCC 2998

C=CC(C)(C)n1cc(C2=C(O)C(=O)C(c3cn(C(C)(C)C=C)c4ccccc34)=C(O)C2=O)c2ccccc21
GI50 (MCF7): 3.48 µM (inactive)
GI50 (CCRF-CEM): 5.25 µM (inactive)
GI50 (OVCAR-5): 1.89 µM (inactive)
GI50 (BT-549): 1.01 µM (active)
GI50 (Malme-3M): 2.54 µM (inactive)
GI50 (SNB-19): 2.41 µM (inactive)
GI50 (SW-620): 10.3 µM (inactive)
GI50 (U-251): 2.35 µM (inactive)
GI50 (NCI-H460): 2.84 µM (inactive)
GI50 (HOP-92): 3.34 µM (inactive)
GI50 (EKVX): 2.93 µM (inactive)
GI50 (HCT-116): 3.27 µM (inactive)
GI50 (LOX IMVI): 3.13 µM (inactive)
GI50 (NCI-H226): 2.67 µM (inactive)
GI50 (COLO 205): 9.14 µM (inactive)
GI50 (KM12): 3.37 µM (inactive)
GI50 (RPMI-8226): 4.44 µM (inactive)
GI50 (SF-539): 1.59 µM (inactive)
GI50 (OVCAR-4): 1.76 µM (inactive)
GI50 (SK-MEL-2): 1.73 µM (inactive)
GI50 (PC-3): 2.27 µM (inactive)
GI50 (SK-MEL-5): 2.08 µM (inactive)
GI50 (SNB-75): 2.36 µM (inactive)
GI50 (OVCAR-8): 2.11 µM (inactive)
GI50 (K562): 5.62 µM (inactive)
GI50 (UACC-62): 1.98 µM (inactive)
GI50 (MDA-MB-435): 3.79 µM (inactive)
GI50 (M14): 2.71 µM (inactive)
GI50 (SF-268): 2.19 µM (inactive)
GI50 (UO-31): 1.67 µM (inactive)
GI50 (UACC-257): 2.9 µM (inactive)
GI50 (SF-295): 2.85 µM (inactive)
GI50 (Hs-578T): 2.07 µM (inactive)
GI50 (HCT-15): 1.75 µM
GI50 (HL-60): 5.09 µM (inactive)
GI50 (CAKI-1): 2.34 µM (inactive)
GI50 (SR): 3.57 µM (inactive)
GI50 (SK-OV-3): 2.67 µM (inactive)
GI50 (786-0): 3.05 µM (inactive)
GI50 (MDA-MB-231): 3.71 µM (inactive)
GI50 (OVCAR-3): 1.96 µM (inactive)
GI50 (TK-10): 3.18 µM (inactive)
GI50 (SN12C): 2.5 µM (inactive)
GI50 (SK-MEL-28): 7.33 µM (inactive)
GI50 (HOP-62): 2.32 µM (inactive)
GI50 (MOLT-4): 4.07 µM (inactive)
GI50 (ACHN): 3.69 µM (inactive)
GI50 (IGROV-1): 2.7 µM (inactive)
GI50 (A549): 3.68 µM (inactive)
GI50 (NCI-H23): 2.32 µM (inactive)
GI50 (NCI-H522): 2.53 µM (inactive)
GI50 (NCI/ADR-RES): 2.2 µM (inactive)
GI50 (A498): 5.97 µM (inactive)
GI50 (MDA-N): 1.95 µM (inactive)
GI50 (HT-29): 3.74 µM (inactive)
GI50 (RXF 393): 0.435 µM (active)
GI50 (DU-145): 4.9 µM (inactive)
GI50 (T47D): 6.71 µM (inactive)
GI50 (HCC 2998): 2.61 µM (inactive)

Cc1cc(/N=C/c2ccc(Cl)cc2)n(-c2ccccc2)n1
GI50 (MCF7): 32.2 µM (inactive)
GI50 (CCRF-CEM): 26.5 µM (inactive)
GI50 (OVCAR-5): 87.5 µM (inactive)
GI50 (BT-549): 31.8 µM (inactive)
GI50 (Malme-3M): 49.3 µM (inactive)
GI50 (SNB-19): 61.1 µM (inactive)
GI50 (SW-620): 39.2 µM (inactive)
GI50 (U-251): > 100 µM (inactive)
GI50 (NCI-H460): 43.1 µM (inactive)
GI50 (HOP-92): 48 µM (inactive)
GI50 (EKVX): 33 µM (inactive)
GI50 (HCT-116): 26.2 µM (inactive)
GI50 (LOX IMVI): 54.2 µM (inactive)
GI50 (NCI-H226): 43.6 µM (inactive)
GI50 (COLO 205): 23.9 µM (inactive)
GI50 (KM12): 23.4 µM (inactive)
GI50 (RPMI-8226): 24.6 µM (inactive)
GI50 (SF-539): > 100 µM (inactive)
GI50 (OVCAR-4): 33.4 µM (inactive)
GI50 (SK-MEL-2): 53.5 µM (inactive)
GI50 (PC-3): 53.8 µM (inactive)
GI50 (SK-MEL-5): 27.6 µM (inactive)
GI50 (SNB-75): 32.4 µM (inactive)
GI50 (OVCAR-8): 40.7 µM (inactive)
GI50 (K562): 12.9 µM (inactive)
GI50 (UACC-62): 54.2 µM (inactive)
GI50 (MDA-MB-435): 31.1 µM (inactive)
GI50 (M14): 48.6 µM (inactive)
GI50 (SF-268): 69.3 µM (inactive)
GI50 (UO-31): 59 µM (inactive)
GI50 (UACC-257): 63.5 µM (inactive)
GI50 (SF-295): 30.8 µM (inactive)
GI50 (Hs-578T): 58.7 µM (inactive)
GI50 (HCT-15): 19 µM
GI50 (HL-60): 26 µM (inactive)
GI50 (CAKI-1): 39 µM (inactive)
GI50 (SR): 31 µM (inactive)
GI50 (SK-OV-3): 67.9 µM (inactive)
GI50 (786-0): 37.3 µM (inactive)
GI50 (MDA-MB-231): > 100 µM (inactive)
GI50 (OVCAR-3): 22.8 µM (inactive)
GI50 (TK-10): 40.3 µM (inactive)
GI50 (SN12C): 39.4 µM (inactive)
GI50 (SK-MEL-28): 44.6 µM (inactive)
GI50 (HOP-62): 36 µM (inactive)
GI50 (MOLT-4): 32.2 µM (inactive)
GI50 (ACHN): 47.2 µM (inactive)
GI50 (IGROV-1): 45.7 µM (inactive)
GI50 (A549): 45.3 µM (inactive)
GI50 (NCI-H23): 42 µM (inactive)
GI50 (NCI-H522): 23.1 µM (inactive)
GI50 (NCI/ADR-RES): 40.9 µM (inactive)
GI50 (A498): 21.9 µM (inactive)
GI50 (MDA-N): 32.2 µM (inactive)
GI50 (HT-29): 23.4 µM (inactive)
GI50 (RXF 393): 22.9 µM (inactive)
GI50 (DU-145): 50.9 µM (inactive)
GI50 (T47D): 16.7 µM (inactive)
GI50 (HCC 2998): 24.9 µM (inactive)
